Laboratory results reported in patent US9480235B1, “Red lettuces with increased anthocyanins, polyphenols, and oxygen radical absorption capacity” (Rutgers, The State University of New Jersey, priority 2012, dated 2016).

Experiments:
Format in all cases: in vivo, C57Bl/6J mice
[1] = system: diet induced obese hyperglycemic mice; assay: Experiment 1: fasting blood glucose after single oral NFR-S-4 lettuce; conditions: for FBG: mean +/- SD
Protocol: (§1) Five-week-old male C57Bl/6J mice (Jackson Labs) were housed in cages (five mice to a cage) at 25° C. with 12-h light-dark cycle. Mice were given ad libitum access to food and water and after an acclimatization period of one week, rodent diet was switched from chow (Purina, No. 5015) to a very high fat diet (VHFD) containing 60% kcal fat (D12492, Research Diets, New Brunswick, N.J.) for a at least 12 weeks to induce obesity, insulin resistance, and hyperglycemia (Surwit et al., Clin. Exp. Met., 44:645-51, 1995). Weekly food intake per cage and individual body weight measurements were determined throughout the study. All mice were introduced to intragastric feeding prior to treatment. During this time, a gavage administration of 0.2 mL of double distilled water was performed daily for 2-3 days prior to the scheduled experiments.
(§2) For all experiments, mice were randomly divided into fasting blood glucose (FBG)-balanced experimental groups. Lettuce leaves were lyophilized powdered and suspended in 66% labrasol or water for the aqueous extract and Metformin® antidiabetic drug was dissolved in water. Blood glucose levels were measured using an AlphaTrak® handheld glucometer (Abbott Labs Inc., Abbott Park, Ill.) using test strips.
In experiment 1, following a 4 hour fasting period, FBG was measured immediately prior to treatment and 6 hours post treatment. […]
(§3) Statistically significant differences between were analyzed by ANOVA followed by Dunnett's multiple comparisons test and/or paired t-tests (one tail) comparing FBG levels immediately prior to treatment (0 h) and 6 hours after treatment (Table 5). A p-value <0.05 was considered statistically significant.

[2] = system: diet induced obese hyperglycemic mice; assay: Experiment 2: oral glucose tolerance test after daily oral NFR-S-4 aqueous extract; conditions: positive control 250 mg/kg
Protocol: as §1, §2
(§4) In experiment 2, high fat diet-induced obese mice, animals were given daily oral administration of NFR-S-4 aqueous extract (100 or 300 mg/kg) or vehicle (water) for 28 days (n=10) (Table 6). A Metformin® antidiabetic drug group (250 mg/kg) was included as a positive control for the animal model (n=5). Aqueous extracts were prepared by a 5:1 extraction (solvent volume to fresh weight) in hot (100° C.) acidified water (pH 2 with H2SO4) to assist with anthocyanin stability during the extraction process. Mice were fasted overnight prior to an oral glucose tolerance test. For oral glucose tolerance tests, mice were given an oral glucose challenge (2 g/kg) and blood glucose levels were measured prior to glucose challenge and 30, 60, 90, 120 and 180 minutes after glucose administration (Table 6).
as §3

[3] = system: diet induced obese hyperglycemic mice; assay: Experiment 3: fasting blood glucose after single oral S-13 lettuce
Protocol: as §1, §2
In experiment 3, mice were treated using an oral ingestion of vehicle (66% labrasol), S-13 lettuce (100, 300 or 450 mg/kg), green Romaine lettuce (450 mg/kg, commercially available), or Metformin® antidiabetic drug (300 mg/kg) (n=4-5 Following a 4 h fasting period, FBG was measured immediately prior to treatment and 6 h post treatment (Table 7).
as §3

[4] = system: diet induced obese hyperglycemic mice; assay: Experiment 4: oral glucose tolerance test 2 h after oral S-13 lettuce; conditions: 300 mg/kg oral 2 h before test
Protocol: as §1, §2, §4
In experiment 4, mice were treated with S-13 lettuce (100 mg/kg), vehicle (66% labrasol), or Metformin® antidiabetic drug (300 mg/kg) by oral administration (n=8-10). After 2 h, mice were given an oral glucose tolerance test as described above (Table 8).
as §3

[5] = 6 h post treatment, 300 mg/kg oral

CN(C)C(=N)N=C(N)N [Metformin]
FBG ([1]; 0 h (immediately prior to treatment), 4 h fast, 300 mg/kg oral group): 222 ± 19 mg/dL
% Decrease in FBG ([1]; 0 h to 6 h, 300 mg/kg oral): 39 +/− 14%
FBG [1, 5]: 133 ± 25 mg/dL
FBG, oral glucose tolerance test ([2]; 0 min, glucose 2 g/kg): 181 ± 26 mg/dL
FBG, oral glucose tolerance test ([2]; 30 min): 298 ± 52 mg/dL
FBG, oral glucose tolerance test ([2]; 60 min): 244 ± 19 mg/dL
FBG, oral glucose tolerance test ([2]; 90 min): 247 ± 32 mg/dL
FBG, oral glucose tolerance test ([2]; 120 min): 249 ± 35 mg/dL
Area under the curve, oral glucose tolerance test [2]: 30153
FBG ([3]; 0 (immediately prior to treatment), 4 h fast, 300 mg/kg oral group, mean +/- SD): 214 ± 20 mg/dL
% Decrease in FBG ([3]; 0 to 6 h, 300 mg/kg oral): 31 +/− 19%
FBG [3, 5]: 146 ± 34 mg/dL
FBG, oral glucose tolerance test ([4]; 0 min, glucose 2 g/kg): 206 ± 45 mg/dL
Area under the curve, oral glucose tolerance test [4]: 40683
FBG, oral glucose tolerance test ([4]; 30 min): 261 ± 51 mg/dL
FBG, oral glucose tolerance test ([4]; 60 min): 263 ± 69 mg/dL
FBG, oral glucose tolerance test ([4]; 90 min): 257 ± 62 mg/dL
FBG, oral glucose tolerance test ([4]; 120 min): 196 ± 31 mg/dL
FBG, oral glucose tolerance test ([4]; 180 min): 176 ± 30 mg/dL
